# Source: the supplement of paper PMC10733146
# Columns and labels:
# Test in all cases: viability relative to DMSO control (fraction); higher = less drug effect (more viable cells)
# Settings in all cases: 48 h
# [1] = tested on: primary T-NHL patient cells (S058)
# Method in brief: (§1)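 Cells were incubated for 48 h at 37 °C and 5% CO2 in RPMI-1640 with penicillin/streptomycin, L-glutamine and human serum, at 4 × 10^4 cells per well in 384-well plates with compounds pre-plated at five concentrations, one well each. These were primary mononuclear tumour cells, fresh or cryopreserved, Ficoll-isolated from blood or bone marrow or obtained from processed lymph node. Viability values are CellTiter-Glo luminescence relative to the median of 16 inner DMSO wells.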
# [2] = tested on: primary AML patient cells (S037)
# Method in brief: as §1
# [3] = tested on: primary AML patient cells (S091)
# Method in brief: as §1
# [4] = tested on: primary AML patient cells (S012)
# Method in brief: as §1
# [5] = tested on: primary AML patient cells (S002)
# Method in brief: as §1
# [6] = tested on: primary AML patient cells (S017)
# Method in brief: as §1
# [7] = tested on: primary AML patient cells (S021)
# Method in brief: as §1
# [8] = tested on: primary DLBCL patient cells (S076)
# Method in brief: as §1
# [9] = tested on: primary AML patient cells (S011)
# Method in brief: as §1
# [10] = tested on: primary AML patient cells (S006)
# Method in brief: as §1
# [11] = tested on: primary AML patient cells (S089)
# Method in brief: as §1
# [12] = tested on: primary AML patient cells (S019)
# Method in brief: as §1
# [13] = tested on: primary CLL patient cells (S043)
# Method in brief: as §1
# [14] = tested on: primary AML patient cells (S007)
# Method in brief: as §1
# [15] = tested on: primary DLBCL patient cells (S049)
# Method in brief: as §1
# [16] = tested on: primary AML patient cells (S085)
# Method in brief: as §1
# [17] = tested on: primary AML patient cells (S081)
# Method in brief: as §1
compound,measurement,setting,value
Nc1cccc2c1CN(C1CCC(=O)NC1=O)C2=O (stereo not given) [Lenalidomide],viability,[1]; 0.008 µM,0.915
same,viability,[1]; 0.04 µM,1.17
same,viability,[1]; 0.2 µM,0.862
same,viability,[1]; 1 µM,1.14
same,viability,[1]; 5 µM,0.91
same,viability,[2]; 0.008 µM,1.03
same,viability,[2]; 0.04 µM,1.31
same,viability,[2]; 0.2 µM,0.912
same,viability,[2]; 1 µM,1.03
same,viability,[2]; 5 µM,0.867
same,viability,[3]; 0.008 µM,1.09
same,viability,[3]; 0.04 µM,1.1
same,viability,[3]; 0.2 µM,1.11
same,viability,[3]; 1 µM,0.943
same,viability,[3]; 5 µM,1.1
same,viability,[4]; 0.008 µM,0.913
same,viability,[4]; 0.04 µM,0.956
same,viability,[4]; 0.2 µM,0.874
same,viability,[4]; 1 µM,0.946
same,viability,[4]; 5 µM,0.981
same,viability,[5]; 0.008 µM,0.904
same,viability,[5]; 0.04 µM,0.949
same,viability,[5]; 0.2 µM,0.757
same,viability,[5]; 1 µM,0.698
same,viability,[5]; 5 µM,0.713
same,viability,[6]; 0.008 µM,1.03
same,viability,[6]; 0.04 µM,0.976
same,viability,[6]; 0.2 µM,0.982
same,viability,[6]; 1 µM,0.963
same,viability,[6]; 5 µM,0.986
same,viability,[7]; 0.008 µM,0.897
same,viability,[7]; 0.04 µM,0.688
same,viability,[7]; 0.2 µM,0.617
same,viability,[7]; 1 µM,0.614
same,viability,[7]; 5 µM,0.556
same,viability,[8]; 0.008 µM,0.847
same,viability,[8]; 0.04 µM,1.11
same,viability,[8]; 0.2 µM,0.749
same,viability,[8]; 1 µM,0.992
same,viability,[8]; 5 µM,1.06
same,viability,[9]; 0.008 µM,0.811
same,viability,[9]; 0.04 µM,0.644
same,viability,[9]; 0.2 µM,0.488
same,viability,[9]; 1 µM,0.496
same,viability,[9]; 5 µM,0.461
same,viability,[10]; 0.008 µM,0.847
same,viability,[10]; 0.04 µM,0.602
same,viability,[10]; 0.2 µM,0.463
same,viability,[10]; 1 µM,0.633
same,viability,[10]; 5 µM,0.372
same,viability,[11]; 0.008 µM,0.916
same,viability,[11]; 0.04 µM,0.727
same,viability,[11]; 0.2 µM,0.724
same,viability,[11]; 1 µM,0.559
same,viability,[11]; 5 µM,0.737
same,viability,[12]; 0.008 µM,1.07
same,viability,[12]; 0.04 µM,0.828
same,viability,[12]; 0.2 µM,0.761
same,viability,[12]; 1 µM,0.863
same,viability,[12]; 5 µM,0.71
same,viability,[13]; 0.008 µM,1.1
same,viability,[13]; 0.04 µM,1.07
same,viability,[13]; 0.2 µM,1.08
same,viability,[13]; 1 µM,1.05
same,viability,[13]; 5 µM,1.05
same,viability,[14]; 0.008 µM,0.801
same,viability,[14]; 0.04 µM,0.386
same,viability,[14]; 0.2 µM,0.204
same,viability,[14]; 1 µM,0.188
same,viability,[14]; 5 µM,0.152
same,viability,[15]; 0.008 µM,0.962
same,viability,[15]; 0.04 µM,1.09
same,viability,[15]; 0.2 µM,0.905
same,viability,[15]; 1 µM,0.943
same,viability,[15]; 5 µM,0.974
same,viability,[16]; 0.008 µM,0.956
same,viability,[16]; 0.04 µM,0.688
same,viability,[16]; 0.2 µM,0.572
same,viability,[16]; 1 µM,0.524
same,viability,[16]; 5 µM,0.529
same,viability,[17]; 0.008 µM,1.03
same,viability,[17]; 0.04 µM,1.06
same,viability,[17]; 0.2 µM,0.999
same,viability,[17]; 1 µM,1.05
same,viability,[17]; 5 µM,1
